Consider six compounds from US5175180A, “N-substituted N-(alpha-triazolyl-toluyl)pyrrole compounds and use for treatment of circulatory disorders” (G. D. Searle & Co., priority 1990, dated 1992).

Like-named read-outs stand apart in the source and are kept apart here.

For experiment [1] the following is noted: result in words, prior art; cited from earlier work.
The test system of experiment [2] is angiotensin II. Conditions: result in words, prior art; cited from earlier work.
Experiment [3] addresses smooth muscle angiotensin II receptor. The experiment can be described thus: Assay A: Angiotensin II Binding Activity (displacement of 125I-angiotensin II, rat uterine membrane preparation). Conditions: 50% displacement of specifically bound 125I-AII; rat uterine membranes, 25° C., 60 min, pH 7.5. The procedure: Compounds of the invention were tested for ability to bind to the smooth muscle angiotensin II receptor using a rat uterine membrane preparation. […] Other chemicals were obtained from Sigma Chemical Co. This assay was carried out according to the method of Douglas et al [Endocrinology, 106, 120-124 (1980)]. Rat uterine membranes were prepared from fresh tissue. All procedures were carried out at 4° C. Uteri were stripped of fat and homogenized in phosphate-buffered saline at pH 7.4 containing 5 mM EDTA. The homogenate was centrifuged at 1500×g for 20 min., and the supernatant was recentrifuged at 100,000×g for 60 min. The pellet was resuspended in buffer consisting of 2 mM EDTA and 50 mM Tris-HCl (pH 7.5) to a final protein concentration of 4 mg/ml. […] The reaction was initiated by the addition of membrane protein and the mixture was incubated at 25° C. for 60 min. The incubation was terminated with ice-cold 50 mM Tris-HCl (pH 7.5) and the mixture was filtered to separate membrane-bound labelled peptide from the free ligand. The incubation tube and filter were washed with ice-cold buffer. Filters were assayed for radioactivity in a Micromedic gamma counter. […] Specific binding was calculated as total binding minus nonspecific binding. […] Binding data were analyzed by a nonlinear least-squares curve fitting program.
For orientation: Loss of bound radioactivity is the signal in a displacement assay; it reports binding, not function.

For experiment [4], the target named is T1, rabbit aortic rings (angiotensin II response) (Oryctolagus cuniculus, UniProt P34976).
T1 construct: The thoracic aorta was removed, cleaned of adherent fat and connective tissue; from tissue; host or cells: thoracic aorta rings without endothelium, male New Zealand white rabbit
T1 sequence (P34976 1-359): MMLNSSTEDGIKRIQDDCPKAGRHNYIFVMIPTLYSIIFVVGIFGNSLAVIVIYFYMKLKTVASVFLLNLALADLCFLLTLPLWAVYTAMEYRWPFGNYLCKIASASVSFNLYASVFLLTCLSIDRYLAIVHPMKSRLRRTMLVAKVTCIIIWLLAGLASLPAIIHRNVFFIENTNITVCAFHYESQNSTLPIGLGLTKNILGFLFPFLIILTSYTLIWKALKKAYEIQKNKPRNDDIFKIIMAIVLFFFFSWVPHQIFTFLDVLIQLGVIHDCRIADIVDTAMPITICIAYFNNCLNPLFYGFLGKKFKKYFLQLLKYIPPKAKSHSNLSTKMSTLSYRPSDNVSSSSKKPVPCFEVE
The experiment can be described thus: Assay B: In Vitro Vascular Smooth Muscle Response for AII (aortic rings). It counts as cell-based, rabbit (male New Zealand white). As for the experimental part: The compounds of the invention were tested for antagonist activity in rabbit aortic rings. Male New Zealand white rabbits (2-2.5 kg) were sacrificed using an overdose of pentobarbital and exsanguinated via the carotid arteries. The thoracic aorta was removed, cleaned of adherent fat and connective tissue and then cut into 3-mm ring segments. The endothelium was removed from the rings by gently sliding a rolled-up piece of filter paper into the vessel lumen. The rings were then mounted in a water-jacketed tissue bath, maintained at 37° C., between moveable and fixed ends of a stainless steel wire with the moveable end attached to an FTO3 Grass transducer coupled to a Model 7D Grass Polygraph for recording isometric force responses. The bath was filled with 20 ml of oxygenated (95% oxygen/5% carbon dioxide) Krebs solution of the following composition (mM): 130 NaCl, 15 NaHCO3, […], 1.2 NaH2 PO4, 1.2 MgSO4, 2.5 CaCl2, and 11.4 glucose. The preparations were equilibrated for one hour before approximately one gram of passive tension was placed on the rings. Angiotensin II concentration-response curves were then recorded (3×10^-10 to 1×10^-5 M). […] The effectiveness of the test compound was expressed in terms of pA2 values and were calculated according to H. O. Schild [Br. J. Pharmacol. Chemother., 2, 189-206 (1947)]. […] Each test antagonist was evaluated in aorta rings from two rabbits.

In experiment [5] the test system is angiotensin II pressor response. The experiment can be described thus: Assay C: In Vivo Intraduodenal Pressor Assay Response for AII Antagonists. More on the design: species or system rat (male Sprague-Dawley). Conditions: 30 mg/kg i.d., average of two rats. As for the experimental part: Angiotensin II injections were then given 5, 10, 20, 30, 45, 60, 75, 90, and 120 minutes after administration of the test compound and response of arterial pressure was monitored. […] Duration of action of a test compound was defined as the time from peak percent inhibition to 50% of peak.

One may read the IC50 as the concentration that gives 50% inhibition. Lower therefore signals higher potency. The term Inhibition denotes the change of the read-out against control, counted positive when it falls. A higher Inhibition goes with strong suppression.

As to `Cc1ccc(C(c2ccc(-n3cccc3)cc2)n2cncn2)cc1` (stereo not shown) [1-[(4-methylphenyl)[4-(1H-pyrrol-1-yl)phenyl]methyl]-1H-1,2,4-triazole], the “antibacterial and antifungal properties” value in experiment [1] is “antibacterial and antifungal properties”.
Turning to `CCCCc1nc(Cl)c(CC(=O)O)n1Cc1ccccc1Cl` [2-n-butyl-4-chloro-1-(2-chlorobenzyl)imidazole-5-acetic acid], the “angiotensin II antagonist activity” value in experiment [2] is on record as “specific competitive angiotensin II antagonist activity”.
With `CCCCc1nc(Cl)c(CC(=O)O)n1Cc1ccccc1[N+](=O)[O-]` [(2-butyl-4-chloro-1-(2-nitrobenzyl)imidazole-5-acetic acid], the “angiotensin II antagonist activity” value in experiment [2] is listed as “specific competitive angiotensin II antagonist activity”.
Take `CCCCc1nc(CCCC)n(Cc2ccc(-n3c(Br)ccc3-c3nnn[nH]3)cc2)n1` [Example 3, 5-[1-[4-[(3,5-di-n-butyl-1H-1,2,4-triazol-1-yl)methyl]phenyl]-5-bromo-1H-pyrrol-2-yl]-1H-tetrazole]: the IC50 in experiment [3] came out at 110 nM. The Kb in experiment [4] (rabbit aortic rings, 37° C., antagonist 5 min before AII challenge, two rabbits, Schild, read-out: pA2 (converted)) was 9.55 nM.
In the case of `CCCCc1nc(CCCC)n(Cc2ccc(-n3c(Cl)cc(Cl)c3-c3nnn[nH]3)cc2)n1` [Example 5, 5-[1-[4-[(3,5-dibutyl-1H-1,2,4-triazol-1-yl)methyl]phenyl]-3,5-dichloro-1H-pyrrol-2-yl]-1H-tetrazole], the IC50 in experiment [3] was 52 nM. For the same compound, the Inhibition in experiment [5] (percent inhibition of AII pressor response, AII 30 ng/kg i.v., ganglion-blocked anesthetized rats) is 85%. Further, the Duration in experiment [5] (time from peak percent inhibition to 50% of peak) worked out at 75 min. Further, the Kb in experiment [4] is 20 nM.
As for `CNCC(=O)N[C@@H](CCCN=C(N)N)C(=O)N[C@H](C(=O)N[C@@H](Cc1ccc(O)cc1)C(=O)N[C@H](C(=O)N[C@@H](Cc1cnc[nH]1)C(=O)N1CCC[C@H]1C(=O)N[C@@H](C)C(=O)O)C(C)C)C(C)C` [Saralasin], the “angiotensin II antagonist activity” value in experiment [2] is “significant residual antagonist activity”.
